“Also recorded” adds a separate entry of the source. Ends that are not written are not given here.
Experiments:
[1] = Immunogenicity of the adjuvant peptide itself in mice; assay type: in vivo; conditions: two groups of 3 mice vaccinated with 25 ng of peptide alone; data not shown
Source text: This significant increase in X-15 specific antibody concentration with RS09 was observed on day 28 (white bar) post vaccination as shown in FIG. 6. […] Thus, while RS01 and RS09 were not immunogenic at the concentration used, RS09 was capable of enhancing production of X-15 specific antibodies.

TLR-4 = biological target: T1, TLR-4 (Homo sapiens, UniProt O00206); test: NF-κB activation (SEAP reporter) in HEK-BLUE-4 cells; assay type: cell-based; conditions: peptide 1, 5 and 10 μg/ml
T1 construct: host or cells: HEK-BLUE-4 (transgenic HEK293)
T1 sequence (O00206 24-839): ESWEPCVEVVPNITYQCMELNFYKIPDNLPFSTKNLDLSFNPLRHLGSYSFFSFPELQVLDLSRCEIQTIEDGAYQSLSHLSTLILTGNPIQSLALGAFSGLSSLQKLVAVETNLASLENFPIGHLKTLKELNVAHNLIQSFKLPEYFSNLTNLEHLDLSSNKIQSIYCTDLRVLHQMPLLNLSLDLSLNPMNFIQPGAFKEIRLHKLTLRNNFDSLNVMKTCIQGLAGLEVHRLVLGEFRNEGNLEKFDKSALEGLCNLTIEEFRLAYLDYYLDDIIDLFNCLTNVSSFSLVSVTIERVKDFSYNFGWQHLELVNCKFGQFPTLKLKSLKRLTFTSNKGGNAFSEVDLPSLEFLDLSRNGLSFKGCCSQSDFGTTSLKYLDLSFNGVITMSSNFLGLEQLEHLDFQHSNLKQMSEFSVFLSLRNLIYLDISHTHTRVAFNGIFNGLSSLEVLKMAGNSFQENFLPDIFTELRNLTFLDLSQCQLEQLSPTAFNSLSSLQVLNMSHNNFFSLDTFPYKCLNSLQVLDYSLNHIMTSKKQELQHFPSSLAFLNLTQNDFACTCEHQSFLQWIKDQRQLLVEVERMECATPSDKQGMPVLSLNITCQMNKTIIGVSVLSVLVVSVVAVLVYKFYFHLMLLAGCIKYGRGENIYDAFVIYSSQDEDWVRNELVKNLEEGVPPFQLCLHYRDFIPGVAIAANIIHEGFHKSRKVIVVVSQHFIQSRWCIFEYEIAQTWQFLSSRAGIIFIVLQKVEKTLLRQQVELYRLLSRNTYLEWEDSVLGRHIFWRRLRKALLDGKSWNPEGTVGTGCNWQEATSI
T1 sequence (Q9Y6Y9 17-160 partner limits assumed): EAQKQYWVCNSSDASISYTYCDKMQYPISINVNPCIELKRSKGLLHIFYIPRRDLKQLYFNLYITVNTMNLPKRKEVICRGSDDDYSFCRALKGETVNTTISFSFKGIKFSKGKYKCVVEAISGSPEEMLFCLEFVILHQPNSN
Experimental: FIG. 2—LPS peptide mimics activate NF-κB in HEK-BLUE™-4. LPS peptide mimics were dissolved in endotoxin free water and added to 96-well plates at three concentrations; 1 μg/ml (black bar), 5 μg/ml (gray bar), and 10 μg/ml (white bar). HEK-BLUE™4 were then added to each well at a concentration of 5×10^4 cells per well in complete media. The supernatant was then harvested after 24 h and assayed for alkaline phosphatase secretion indicating activation of NF-κB. NF-κB activation is represented in FIG. 2A for peptides RS01-RS07 and in FIG. 2B for peptides RS08-RS12. LPS was used as a positive control in assaying all peptides for NF-κB activation. Absorbance was taken at 630 nm. Each experiment was repeated three times with similar results observed. The standard deviation shown above each sample represents three replicates in one experiment.
The twelve peptides were assayed for their ability to bind to TLR-4 and activate NF-κB using a transgenic HEK293 cell line known as HEK-BLUE™-4. This cell line is stably transfected to only express TLR-4 on its plasma membrane, with no other TLRs present. Detecting activation of NF-κB is made possible by placing secreted alkaline phosphatase (SEAP) under the control of the NF-κB promoter. Therefore, NF-κB activation leads to SEAP secretion, which is detected by an alkaline phosphatase substrate in cell culture media.
The LPS peptide mimics were dissolved in endotoxin free water (HyClone) at a concentration of 1 μg/ml with the exception of peptide 4 which was dissolved in a solution of 1% DMSO made in endotoxin free water at 1 μg/ml concentration. All of the peptide stock solutions and stored at −80° C. Each of the 12 peptides (RS01-RS12) was added to 96-well plates in triplicate in a total volume of 20 μl. The total volume required in each•well was made up with endotoxin free water (HyClone). […] After a noticeable color change, the absorbance was taken at 630 nm using the microplate reader (Bio-Rad). […]

[2] = Water solubility of peptide stock; assay type: physicochemical; conditions: endotoxin free water; dissolved in 1% DMSO instead
Experimental: The LPS peptide mimics were dissolved in endotoxin free water (HyClone) at a concentration of 1 μg/ml with the exception of peptide 4 which was dissolved in a solution of 1% DMSO made in endotoxin free water at 1 μg/ml concentration. All of the peptide stock solutions and stored at −80° C. Each of the 12 peptides (RS01-RS12) was added to 96-well plates in triplicate in a total volume of 20 μl. The total volume required in each•well was made up with endotoxin free water (HyClone). 5×10^4 HEK-BLUE™-4 cells (Invivogen, San Diego, Calif.) were added per well and incubated for approximately 20 h after which the supernatant from each well was collected and placed into a new 96-well plate. 180 μl of HEK-BLUE™ detection media (Invivogen), alkaline phosphatase detection substrate, was added to each well and incubated for 1-3 h at 37° C. After a noticeable color change, the absorbance was taken at 630 nm using the microplate reader (Bio-Rad).
For all peptides, three concentrations, 1 μg/ml (black bars), 5 μg/ml (gray bars), and 10 μg/ml (white bars) were used to activate HEK-BLUE™-4 cells. LPS (0.1 μg/ml) was used as a positive control.

prostate tumor = conditions: in vivo, administered with an adjuvant; cited from earlier work
NF-κB [3] = test: NF-κB nuclear translocation Western blot in non-TLR-4 expressing HEK293 (negative control cells); assay type: cell-based; conditions: HEK293 lacking TLR-4
Experimental: FIG. 3—LPS peptide mimics lead to NF-κB nuclear translocation. Nuclear translocation studies of NF-κB were performed by Western blot analysis on both RAW264.7 (FIG. 3A), HEK-BLUE™-4 (FIG. 3B), and HEK293 (FIG. 3C) cells. Cells were stimulated with peptide, either RS01 or RS09, at a concentration of 5 μg/ml per 5×10^4 cells at various time points (15, 30, 60, and 120 min) Nuclear protein fractions were assayed for NF-κB while cytoplasmic proteins fractions were assayed for both NF-κB and IκB-α. HDAC was used as a nuclear protein loading control and actin was used as a cytoplasmic protein loading control.
For NF-KB nuclear translocation western blots, cytoplasmic and nuclear protein extracts were prepared from HEK-BLUE™-4, HEK293, and RAW264.7 cells (2×10^6 cells) using NE-PER, nuclear and cytoplasmic extraction reagent kit (PIERCE, Rockford, Ill.). The manufacturer's protocol was followed to separate cytoplasmic and nuclear fractions. Nuclear and cytoplasmic lysates (10 μg protein) were subjected to 12% SDS-PAGE under reducing conditions (presence of β-mercaptoethanol). […] After four washes with TBST and one wash with TBS, membranes were developed by ECL (Pierce) and detected on HyBlot CL™ autoradiography film (Denville Scientific, Inc, Metuchen, N.J.). […]

RAW264.7 cells = test: Inflammatory cytokine secretion from RAW264.7 macrophages (antibody array); assay type: cell-based, mouse; conditions: 24 h
Experimental: FIG. 5—RAW264.7 secretes inflammatory cytokines in response to RS01 and RS09. RAW264.7 cells were seeded at a density of 1×10^6 cells per well of a six well plate followed by addition of either […] (FIG. 5A) or RS09 (FIG. 5B) and incubated for 24 h after which the culture media was collected. LPS was used as a positive control for both RS01 and RS09. Culture media was then analyzed for specific cytokines using an antibody array kit. […] Each cytokine is represented as an IDV value which was calculated by comparing the density of each spot with respect to the density of the internal positive controls. The antibody array represents a qualitative comparison of each cytokine and is […]. Each experiment was repeated three times with similar results observed. […]
RAW264. […] The blots were then developed using ECL (Pierce) and detected on HyBlot CL™ autoradiography film (Denville Scientific). […]
Although the values obtained for each cytokine are not quantitative but rather qualitative, they do show an increase in release of inflammatory cytokines. These values were calculated and presented as IDV, which is the density of each spot compared to the density of the internal positive controls present on each membrane. Values for the various cytokines and chemokines detected are presented in FIG. 5A for RS01 and FIG. 5B for RS09. […]

NF-κB [4] = test: Fluorescence microscopy of NF-κB nuclear translocation in RAW264.7; assay type: cell-based; conditions: 5 μg/ml, 30 min
Experimental: FIG. 4—Fluorescence microscopy of NF-κB nuclear translocation. RAW264.7 macrophages were seeded in 8 well chamber slides at a density of 2×10^4 cells per well and stimulated with 5 μg/ml of either RS01 or RS09. After 30 min incubation, cells were fixed (4% para-formaldehyde), permeabilized (0.2% TRITON® X-100), blocked (10% goat serum/1% BSA), and incubated with anti-NF-κB followed by DAPI staining of nuclei. The stained cells were visualized using the Axiovert 200 M microscope with a 40× magnification. NF-KB (green) was more diffusely spread throughout the cytoplasm in control cells but appeared more circular in RS01, RS09, and LPS treated cells.
HEK-BLUE™-4 and RAW264.7 cells were seeded in 8-chamber slides (BD Biosciences, Bedford, Mass.) at a density of 2×10^4 cells per well. Cells were allowed to adhere at 37° C. over night after which the cells were stimulated with LPS peptide mimics at various time points and subsequently processed for immunofluorescence. The cells were fixed with a 4% paraformaldehyde/PBS solution, followed by permeabilization with 0.2% TRITON® X-100, and blocked using a solution of 0.1% TRITON® X-100, 1% BSA, and 10% goat serum. […]

APPHALS [RS09, Ala Pro Pro His Ala Leu Ser]
antibody response to the adjuvant peptide (immunogenicity) [1]: no antibodies were produced

ELAPDSP [RS12]
TLR-4 stimulation and NF-κB activation (alkaline phosphatase secretion, absorbance 630 nm) (TLR-4): considered as positive for TLR-4 stimulation and NF-κB activation

GLQQVLL [RS04, Gly Leu Gln Gln Val Leu Leu]
water solubility [2]: not water soluble

GQWQSGDRYWMETST (also: KLH conjugate) [Peptide X-15]
prostate tumor protective properties (prostate tumor): possess prostate tumor protective properties in vivo

Lipopolysaccharide [LPS]
NF-κB nuclear translocation (NF-κB [3]): do not activate the non-TLR-4 expressing HEK293 cells; also recorded: did not result in nuclear translocation | secretion of inflammatory cytokines and chemokines (IDV, qualitative) (RAW264.7 cells): capable of inducing inflammatory cytokines and chemokines | NF-κB nuclear localization (immunofluorescence, DAPI merge) (NF-κB [4]): nuclear localization of NF-κB was observed

QEINSSY [RS01, Gln Glu Ile Asn Ser Ser Tyr]
antibody response to the adjuvant peptide (immunogenicity) [1]: no antibodies were produced

SMPNPMV [RS03]
TLR-4 stimulation and NF-κB activation (alkaline phosphatase secretion, absorbance 630 nm) (TLR-4): considered as TLR-4 stimulating and hence activators of NF-κB

VVPTPPY [RS11]
TLR-4 stimulation and NF-κB activation (alkaline phosphatase secretion, absorbance 630 nm) (TLR-4): considered as positive for TLR-4 stimulation and NF-κB activation
